Entries after “also recorded” stand apart in the source; their conditions may differ.
B1: DNase: DNase, most widely used mucoactive agent for CF patients; comparator (protein, UniProt P24855 23-282, looked up)
Deoxyribonuclease-1: LKIAAFNIQTFGETKMSNATLVSYIVQILSRYDIALVQEVRDSHLTAVGKLLDNLNQDAPDTYHYVVSEPLGRNSYKERYLFVYRPDQVSAVDSYYYDDGCEPCGNDTFNREPAIVRFFSRFTEVREFAIVPLHAAPGDAVAEIDALYDVYLDVQEKWGLEDVMLMGDFNAGCSYVRPSQWSSIRLWTSPTFQWLIPDSADTTATPTHCAYDRIVVAGMLLRGAVVPDSALPFNFQAAYGLSDQLAQAISDHYPVEVMLK

Key:
CF sputum = CF sputum homogenate treatment: visual aspect and cell counting; parameters: species or system human; conditions: for morphological aspect of the sputum after treatment: CF sputum homogenate, 2 h, 400 μg/ml DNase or 1.5 mg/ml pLK
Experimental: (§1) Sputum processing-CF sputum was collected into 50 ml Falcon® tubes by physiotherapy and processed immediately. Sputum was diluted with 3 volumes of PBS per gram and homogenized to obtain a crude homogenate that was kept on ice. An aliquot of each homogenate was incubated for 2 h in low-binding microtubes with 400 μg/ml DNase or with 1.5 mg/ml of poly-L-Lysine (pLK) or PEGylated pLK (PEG-g-pLK) under gentle stirring at room temperature, then layered on a glass slide for cell counting by trypan blue exclusion and visual aspect under the optical microscope. Different sizes of pLK were tested (pLK, HBr of either 500-2,000 Da, 1000-5,000 Da, 4,000-15,000 Da and 40,000-50,000 Da molecular weight). PEG-g-pLK was pLK of 40,000-50,000 Da molecular weight grafted with one mPEG molecule of 5,000 Da.
The increased viscosity of mucus in the CF lung leads to lung obstruction and subsequent decrease in lung function. Because DNA is a major component of CF lung secretions that contributes to their viscosity, rhDNase has been used for long by CF patients as a liquefying expectorant (28). A possible other mean to fluidize lung secretions could be through the condensation of extracellular DNA by positively charged polymers. We checked this hypothesis using poly-L-lysine (pLK) and comparing the rheological properties of CF sputa before and after treatment by pLK. Then we compared the results with those obtained using DNase in the same conditions.

extracellular DNA = test: Quantification of extracellular DNA in CF sputum; parameters: species or system human; conditions: for amount of extracellular DNA: CF sputum after treatment, EvaGreen
Experimental: as §1
Extracellular DNA is quantified with the non-cell-permeant fluorochrome EvaGreen™ dsDNA reagent (λex=488 nm and λem=520 nm).

HNE = biological target: T1, HNE (Homo sapiens, UniProt P08246); test: HNE activity in whole CF sputa and its inhibition by exogenous inhibitors; assay type: biochemical; conditions: after treatment of whole CF sputum
T1 construct: Aliquots of sputum homogenates containing peptidases in the 10 nanomolar range; from tissue; host or cells: sputum of cystic fibrosis patients (crude homogenate in PBS)
T1 sequence (P08246 30-247 limits assumed): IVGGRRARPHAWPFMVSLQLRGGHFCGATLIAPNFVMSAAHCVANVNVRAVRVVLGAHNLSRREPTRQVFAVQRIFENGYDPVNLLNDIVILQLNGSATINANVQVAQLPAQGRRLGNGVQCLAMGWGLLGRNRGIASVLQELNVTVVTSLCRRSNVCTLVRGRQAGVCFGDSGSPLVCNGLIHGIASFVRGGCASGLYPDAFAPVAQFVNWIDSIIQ
Experimental: (§2) Proteases activities were measured as described in (26) with the specific FRET (fluorescence resonance energy transfer) substrates of HNE, Pr3 and CG: Abz-APEEIMRRQ-YNO2, Abz-VADnVADQ-EDDnp and Abz-TPFSGQ-YNO2 respectively (λex=320 nm and λem=420 nm). The concentrations of active proteases in biological samples were determined by comparing the rates of hydrolysis of their specific substrates with those of commercial titrated proteases under the same experimental conditions. HNE and Pr3 were titrated as described in (27) and CG was titrated with HNE-titrated recombinant human secretory leukocyte protease inhibitor.
(§3) Aliquots of sputum homogenates containing peptidases in the 10 nanomolar range, were incubated for 30 min at room temperature with increasing amounts of inhibitors up to a (I)/(E) molar ratio of about 40. The low Mr recombinant inhibitor EPI-hNE4 or α1-proteinase inhibitor (α1-Pi) were used to inhibit HNE, while α1-antichymotrypsin (ACT) was used to inhibit CG; Pr3 was inhibited with α1-Pi after samples had been incubated with a 1000-fold molar excess of EPI-hNE4 to avoid the α1-Pi interacting with HNE (8).

Pr3 = biological target: T2, Pr3 (Homo sapiens, UniProt P24158); test: Pr3 activity in whole CF sputa and its inhibition by α1-Pi; assay type: biochemical; conditions: after treatment of whole CF sputum
T2 construct: Aliquots of sputum homogenates containing peptidases in the 10 nanomolar range; from tissue; host or cells: sputum of cystic fibrosis patients (crude homogenate in PBS)
T2 sequence (P24158 28-248 limits assumed): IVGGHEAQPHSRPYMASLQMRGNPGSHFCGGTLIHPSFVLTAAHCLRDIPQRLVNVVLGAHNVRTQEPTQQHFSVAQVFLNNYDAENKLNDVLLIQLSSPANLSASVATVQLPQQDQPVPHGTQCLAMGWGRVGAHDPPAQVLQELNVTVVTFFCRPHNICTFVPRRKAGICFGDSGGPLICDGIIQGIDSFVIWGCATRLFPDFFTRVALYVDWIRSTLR
Experimental: as §2, §3

CG = biological target: T3, CG (Homo sapiens, UniProt P08311); test: CG activity in whole CF sputa and its inhibition by ACT; assay type: biochemical; conditions: after treatment of whole CF sputum
T3 construct: Aliquots of sputum homogenates containing peptidases in the 10 nanomolar range; from tissue; host or cells: sputum of cystic fibrosis patients (crude homogenate in PBS)
T3 sequence (P08311 21-243 limits assumed): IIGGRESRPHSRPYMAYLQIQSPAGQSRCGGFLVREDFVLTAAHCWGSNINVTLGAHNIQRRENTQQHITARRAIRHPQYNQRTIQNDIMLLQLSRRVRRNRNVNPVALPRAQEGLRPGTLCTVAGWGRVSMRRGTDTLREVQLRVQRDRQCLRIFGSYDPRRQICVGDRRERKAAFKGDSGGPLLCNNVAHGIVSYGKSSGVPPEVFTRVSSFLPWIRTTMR
Experimental: as §2, §3

[1] = system: S. aureus (strain CIP 103811); test: Antimicrobial test and scanning electron microscopy, S. aureus; assay type: cell-based, Staphylococcus aureus; conditions: for bactericidal effect (CFU): 6×10^6 bacteria, 3 h, 150 μl PBS, 110 μg DNase or 2 μg pLK
Experimental: (§4) The bacterial count was determined by the measure of OD600nm.
(§5) 6×10^6 bacteria were incubated in low-binding 96-wells microplates 3 h in 150 μl PBS containing 110 μg of DNase or 2 μg of pLK (MW 40,000-50,000 Da). Aliquots of the media were then collected and serial dilutions in PBS were laid on agar plates. CFUs were numbered after incubation at 37° C. Extracellular DNA in the remaining media was quantified as previously described as a marker of bacterial wall permeability.
(§6) 6×10^6 bacteria were settled on polylysine-coated glass slides and treated (or not) with DNase or pLK (pLK of 40,000-50,000 Da). They were then fixed with 1% (v/v) glutaraldehyde and 4% (v/v) paraformaldehyde in 0.1 M PBS, pH 7.4, post-fixed in 2% (v/v) osmium tetroxide, dehydrated in a graded acetone series, dried to the critical point using carbon dioxide, and sputter coated with platinum.

[2] = system: P. aeruginosa (strain PAO1); test: Antimicrobial test and scanning electron microscopy, P. aeruginosa; assay type: cell-based, Pseudomonas aeruginosa; conditions: for bactericidal effect (CFU): 6×10^6 bacteria, 3 h, 150 μl PBS, 110 μg DNase or 2 μg pLK
Experimental: as §4, §5, §6

[3] = system: neutrophil serine proteases (HNE, Pr3 and CG); test: Proteases activities and inhibition in CF sputum, overall comparison of treatments; assay type: biochemical, human; conditions: compared with pLK of higher MW (40,000-50,000 Da)
Experimental: as §1
as §2, with “HNE and Pr3 were titrated as described in (27) and CG was titrated with HNE-titrated recombinant human secretory leukocyte protease inhibitor.” left out

control mice = assay type: in vivo, mouse
Description: The objective of the study was to identify the nature and the dose of polycations to be aerosolized safely in control mice.
In vivo assessment of polycations toxicity has been done by cytologic analysis of bronchoalveolar lavage fluids (BALFs), quantification of proinflammatory cytokines (IL6 and KC) and lung anatomopathology.
Aerosol administration of different doses of pLK was done using a Microsprayer®. Mice were killed at day 2 and day 5 and bronchoalveolar lavage fluids (BALF) were obtained with instillation of 5×0.5 mL of sterile PBS into the lungs. Lungs were perfused with 4% formaldehyde for histological studies. Cells were collected after centrifugation of BALFs, suspended in PBS, and analyzed by flow cytometry. The supernatant was used for cytokine quantification using commercially available ELISA kits.

Beas-2B cells = test: In vitro cellular toxicity in Beas-2B cell cultures; assay type: cell-based; conditions: in vitro cultures of Beas-2B cells
[4] = aerosol 2.4 mg/kg (66 μg in 50 μL, about 130 μM), Mann-Whitney test

Row | Molecule | morphological aspect of the sputum after treatment (CF sputum) | amount of extracellular DNA (extracellular DNA) | elastase activity in whole sputum (HNE) | inhibition of elastase activity by elastase inhibitors (α1-Pi) (HNE) | activity of PR3 (Pr3) | inhibition of PR3 by α1-Pi (Pr3) | CG inhibition by ACT (CG) | bactericidal effect (CFU) [1] | morphology of the bacteria (scanning electron microscopy) ([1]; S. aureus) | bactericidal effect (CFU) [2] | morphology of the bacteria (scanning electron microscopy) ([2]; P. aeruginosa) | other results
1 | poly-L-lysine [pLK] | fractionation of the sputum in dense aggregates and a very fluid phase | important decrease | dramatic increase; also recorded: increase of elastase activity | stoichiometrically inhibited | Neither pLK nor DNase treatments significantly affected | Neither pLK nor DNase treatments significantly affected | significantly improved | significant bactericidal effect | less marked | significant bactericidal effect | significant modification of the morphology; also recorded: spiculated surface | apparent cell count in sputum homogenate (CF sputum; trypan blue exclusion, neutrophils found in aggregates): apparent decrease; DNA degradation in treated sputum (extracellular DNA; extracellular content restored after addition of dextran sulfate): not degraded; bacterial wall permeabilization (extracellular DNA, non-cell permeant fluorophore) ([1]; S. aureus): no wall permeabilization; bacterial wall permeabilization (extracellular DNA, non-cell permeant fluorophore) ([2]; P. aeruginosa): disruption of the bacterial wall
2 | poly-L-lysine [pLK 500-2,000 Da] |  |  |  |  |  |  |  |  |  |  |  | efficiency of pLK of different sizes [3]: far less efficient
3 | poly-L-lysine [pLK (4-15 kDa)] |  |  |  |  |  |  |  |  |  |  |  | efficiency of pLK of different sizes ([3]; listed as pLK 4,000-15,000 Da): same results as those with higher MW; BALF cellularity, treated vs control mice (control mice; [4]): no significant differences; cytokines quantification (IL6 and KC) in BALF, treated vs control mice (control mice; [4]): no significant differences; broncho-interstitial inflammation (histological study) (control mice; aerosol 2.4 mg/kg, day 2, both in treated and in control groups): minimal broncho-interstitial inflammation; lung lesion (histological study) (control mice; aerosol 2.4 mg/kg, day 2 and day 5): no lung lesion; cellular toxicity (Beas-2B cells): can be observed; in vitro toxicity threshold (Beas-2B cells): 5 µM
4 | B1 | no morphological change | important decrease | dramatic increase; also recorded: increase of elastase activity | completely and stoichiometrically inhibited | Neither pLK nor DNase treatments significantly affected | Neither pLK nor DNase treatments significantly affected | pLK, unlike DNase, significantly improved | no antimicrobial properties | nor it affected the morphology | no antimicrobial properties | nor it affected the morphology | 
